# Experimental data: patent US20230028463A1, “METHOD FOR PRODUCING ACTINIC RAY-SENSITIVE OR RADIATION-SENSITIVE RESIN COMPOSITION, PATTERN FORMATION METHOD, AND METHOD FOR MANUFACTURING ELECTRONIC DEVICE” (FUJIFILM Corporation, priority 2020, published 2023)
# Experiment: Solubility of photoacid generator in 100 g of solvent at 25° C.
# Type: physicochemical
# Settings: in 100 g of PGME at 25° C.
# Description: <Solubility (g) of Photoacid Generator in 100 g of Solvent at 25° C.>
# “A”: The solubility is more than 3 g
# “B”: The solubility is 0.5 to 3 g
# “C”: The solubility is less than 0.5 g
smiles,measurement,value
c1ccc([S+]2CCCC2)cc1 [B-4],Solubility (25° C.) of photoacid generator in solvent,A (The solubility is more than 3 g)
